Experiments:
Test in all cases: biochemical
Parameters in all cases: DiscoverX kinase panel, active-site competition binding (KINOMEscan type), percent of control at one concentration
Details in all cases: competition binding, percent of control
FRK = FRK (Homo sapiens, UniProt P42685)
CSNK1D = CSNK1D (Homo sapiens, UniProt P48730)
CDKL2 = CDKL2 (Homo sapiens, UniProt Q92772)
KIT(A829P) = KIT(A829P) (Homo sapiens, UniProt P10721, A829P)
ROCK2 = ROCK2 (Homo sapiens, UniProt O75116)
KIT(V559D) = KIT(V559D) (Homo sapiens, UniProt P10721, V559D)
KIT(V559D), sequence (P10721 whole entry V559D): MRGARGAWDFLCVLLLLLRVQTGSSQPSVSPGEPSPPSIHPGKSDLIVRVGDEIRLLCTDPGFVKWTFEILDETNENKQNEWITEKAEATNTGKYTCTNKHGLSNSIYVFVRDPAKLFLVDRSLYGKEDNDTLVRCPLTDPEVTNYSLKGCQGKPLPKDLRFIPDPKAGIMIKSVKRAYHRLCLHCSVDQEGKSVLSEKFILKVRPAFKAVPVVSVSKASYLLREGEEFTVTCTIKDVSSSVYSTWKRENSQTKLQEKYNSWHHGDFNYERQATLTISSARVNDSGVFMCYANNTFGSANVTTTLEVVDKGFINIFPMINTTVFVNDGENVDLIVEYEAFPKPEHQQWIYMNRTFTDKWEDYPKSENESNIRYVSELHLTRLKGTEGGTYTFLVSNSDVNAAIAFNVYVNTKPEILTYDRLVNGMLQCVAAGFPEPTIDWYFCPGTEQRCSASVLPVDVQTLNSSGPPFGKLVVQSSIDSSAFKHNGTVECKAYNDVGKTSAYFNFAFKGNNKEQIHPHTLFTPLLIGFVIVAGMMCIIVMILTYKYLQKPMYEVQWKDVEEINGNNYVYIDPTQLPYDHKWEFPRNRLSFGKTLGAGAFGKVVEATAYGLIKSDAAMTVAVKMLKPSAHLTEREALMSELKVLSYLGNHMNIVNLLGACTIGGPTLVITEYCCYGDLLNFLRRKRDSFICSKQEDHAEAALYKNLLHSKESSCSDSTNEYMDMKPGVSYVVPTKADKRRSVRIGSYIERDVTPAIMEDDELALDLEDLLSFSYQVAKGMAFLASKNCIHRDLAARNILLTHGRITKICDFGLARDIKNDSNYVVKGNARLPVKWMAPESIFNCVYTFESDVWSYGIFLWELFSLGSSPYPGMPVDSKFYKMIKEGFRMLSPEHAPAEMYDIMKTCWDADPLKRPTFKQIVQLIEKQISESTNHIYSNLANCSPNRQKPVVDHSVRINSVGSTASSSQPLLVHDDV

p38-delta = target: T1, p38-delta (Homo sapiens, UniProt O15264)
T1 construct: gene MAPK13
T1 sequence (O15264 whole entry): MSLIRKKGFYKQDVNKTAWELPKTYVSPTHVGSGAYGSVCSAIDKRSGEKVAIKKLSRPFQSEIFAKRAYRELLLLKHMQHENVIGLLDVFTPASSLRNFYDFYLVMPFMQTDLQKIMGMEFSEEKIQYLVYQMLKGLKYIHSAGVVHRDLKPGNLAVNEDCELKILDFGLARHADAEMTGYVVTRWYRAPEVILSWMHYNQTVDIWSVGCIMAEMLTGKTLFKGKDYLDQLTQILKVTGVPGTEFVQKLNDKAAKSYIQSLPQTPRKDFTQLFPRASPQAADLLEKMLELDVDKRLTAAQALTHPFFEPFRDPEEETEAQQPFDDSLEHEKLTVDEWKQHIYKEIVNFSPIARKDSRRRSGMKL

[1] = target: T2, ABL1(T315I)-nonphosphorylated (Homo sapiens, UniProt P00519, T315I)
T2 construct: nonphosphorylated

VPS34 = target: T3, VPS34 (Homo sapiens, UniProt Q8NEB9)
T3 construct: gene PIK3C3
T3 sequence (Q8NEB9 whole entry): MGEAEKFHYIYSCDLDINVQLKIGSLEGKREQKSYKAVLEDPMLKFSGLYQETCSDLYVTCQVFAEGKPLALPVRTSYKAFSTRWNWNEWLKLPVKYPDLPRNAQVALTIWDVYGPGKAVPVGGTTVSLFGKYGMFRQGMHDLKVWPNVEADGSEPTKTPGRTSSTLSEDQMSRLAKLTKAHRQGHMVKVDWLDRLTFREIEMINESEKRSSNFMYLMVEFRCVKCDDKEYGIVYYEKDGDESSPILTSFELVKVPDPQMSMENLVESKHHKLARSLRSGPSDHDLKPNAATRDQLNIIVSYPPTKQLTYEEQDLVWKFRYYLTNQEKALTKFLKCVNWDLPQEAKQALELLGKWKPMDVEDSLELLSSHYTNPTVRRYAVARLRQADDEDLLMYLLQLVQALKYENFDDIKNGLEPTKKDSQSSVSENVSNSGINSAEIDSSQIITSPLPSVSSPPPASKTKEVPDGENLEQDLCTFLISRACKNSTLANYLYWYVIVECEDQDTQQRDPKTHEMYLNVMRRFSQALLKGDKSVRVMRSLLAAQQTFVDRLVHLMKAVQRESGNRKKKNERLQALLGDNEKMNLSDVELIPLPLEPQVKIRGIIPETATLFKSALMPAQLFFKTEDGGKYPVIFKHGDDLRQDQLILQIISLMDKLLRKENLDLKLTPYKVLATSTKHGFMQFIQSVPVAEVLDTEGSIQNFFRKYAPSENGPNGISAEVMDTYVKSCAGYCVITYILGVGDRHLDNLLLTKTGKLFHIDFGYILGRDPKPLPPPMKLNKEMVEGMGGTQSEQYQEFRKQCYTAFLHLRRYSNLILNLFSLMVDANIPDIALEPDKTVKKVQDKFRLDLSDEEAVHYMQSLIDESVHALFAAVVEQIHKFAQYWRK

FAK = target: T4, FAK (Homo sapiens, UniProt Q05397)
T4 construct: gene PTK2

IRAK3 = IRAK3 (Homo sapiens, UniProt Q9Y616)
PCTK3 = target: T5, PCTK3 (Homo sapiens, UniProt Q07002)
T5 construct: gene CDK18

TRKA = target: T6, TRKA (Homo sapiens, UniProt P04629)
T6 construct: gene NTRK1

MKNK1 = MKNK1 (Homo sapiens, UniProt Q9BUB5)
SIK2 = SIK2 (Homo sapiens, UniProt Q9H0K1)
CAMK4 = CAMK4 (Homo sapiens, UniProt Q16566)
CAMK2G = CAMK2G (Homo sapiens, UniProt Q13555)
PLK4 = PLK4 (Homo sapiens, UniProt O00444)
AMPK-alpha1 = target: T7, AMPK-alpha1 (Homo sapiens, UniProt Q13131)
T7 construct: gene PRKAA1

STK16 = STK16 (Homo sapiens, UniProt O75716)
MET(Y1235D) = MET(Y1235D) (Homo sapiens, UniProt P08581, Y1235D)
MET(Y1235D), sequence (P08581 whole entry Y1235D): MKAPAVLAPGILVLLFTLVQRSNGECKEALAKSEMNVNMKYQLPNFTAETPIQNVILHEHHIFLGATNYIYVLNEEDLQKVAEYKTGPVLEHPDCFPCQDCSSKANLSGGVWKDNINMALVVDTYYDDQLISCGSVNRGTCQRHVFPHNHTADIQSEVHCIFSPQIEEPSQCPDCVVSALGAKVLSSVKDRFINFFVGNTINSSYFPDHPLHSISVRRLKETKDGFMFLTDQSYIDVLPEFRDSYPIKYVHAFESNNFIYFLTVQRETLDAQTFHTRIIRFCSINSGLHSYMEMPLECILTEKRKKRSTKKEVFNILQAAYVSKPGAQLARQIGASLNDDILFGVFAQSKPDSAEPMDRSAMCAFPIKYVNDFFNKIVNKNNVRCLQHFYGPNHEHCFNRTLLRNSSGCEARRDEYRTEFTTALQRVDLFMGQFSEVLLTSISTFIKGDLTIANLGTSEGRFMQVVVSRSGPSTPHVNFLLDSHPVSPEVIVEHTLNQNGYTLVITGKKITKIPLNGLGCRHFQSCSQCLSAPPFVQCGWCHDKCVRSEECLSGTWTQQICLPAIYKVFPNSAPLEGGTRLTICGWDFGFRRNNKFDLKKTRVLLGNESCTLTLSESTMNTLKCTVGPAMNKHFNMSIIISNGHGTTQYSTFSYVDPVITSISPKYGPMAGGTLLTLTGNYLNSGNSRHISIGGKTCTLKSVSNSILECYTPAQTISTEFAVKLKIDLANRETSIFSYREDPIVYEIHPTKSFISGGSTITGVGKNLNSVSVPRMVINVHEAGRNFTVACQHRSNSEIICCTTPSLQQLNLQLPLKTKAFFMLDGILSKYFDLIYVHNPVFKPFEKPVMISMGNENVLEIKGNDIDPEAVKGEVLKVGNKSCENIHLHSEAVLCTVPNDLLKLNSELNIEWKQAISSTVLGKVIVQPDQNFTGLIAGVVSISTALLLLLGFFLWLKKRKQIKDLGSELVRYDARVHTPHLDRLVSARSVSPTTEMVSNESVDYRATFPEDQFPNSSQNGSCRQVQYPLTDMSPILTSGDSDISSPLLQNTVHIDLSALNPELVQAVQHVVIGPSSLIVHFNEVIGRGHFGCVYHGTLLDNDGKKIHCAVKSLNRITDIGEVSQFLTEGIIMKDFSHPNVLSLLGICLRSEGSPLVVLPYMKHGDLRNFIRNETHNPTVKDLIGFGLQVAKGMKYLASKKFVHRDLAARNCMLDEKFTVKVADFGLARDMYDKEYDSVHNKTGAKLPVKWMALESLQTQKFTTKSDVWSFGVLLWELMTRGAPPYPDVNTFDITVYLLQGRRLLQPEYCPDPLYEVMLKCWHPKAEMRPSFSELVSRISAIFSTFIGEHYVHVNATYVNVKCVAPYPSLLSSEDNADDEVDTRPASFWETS

ROCK2, sequence (O75116 whole entry): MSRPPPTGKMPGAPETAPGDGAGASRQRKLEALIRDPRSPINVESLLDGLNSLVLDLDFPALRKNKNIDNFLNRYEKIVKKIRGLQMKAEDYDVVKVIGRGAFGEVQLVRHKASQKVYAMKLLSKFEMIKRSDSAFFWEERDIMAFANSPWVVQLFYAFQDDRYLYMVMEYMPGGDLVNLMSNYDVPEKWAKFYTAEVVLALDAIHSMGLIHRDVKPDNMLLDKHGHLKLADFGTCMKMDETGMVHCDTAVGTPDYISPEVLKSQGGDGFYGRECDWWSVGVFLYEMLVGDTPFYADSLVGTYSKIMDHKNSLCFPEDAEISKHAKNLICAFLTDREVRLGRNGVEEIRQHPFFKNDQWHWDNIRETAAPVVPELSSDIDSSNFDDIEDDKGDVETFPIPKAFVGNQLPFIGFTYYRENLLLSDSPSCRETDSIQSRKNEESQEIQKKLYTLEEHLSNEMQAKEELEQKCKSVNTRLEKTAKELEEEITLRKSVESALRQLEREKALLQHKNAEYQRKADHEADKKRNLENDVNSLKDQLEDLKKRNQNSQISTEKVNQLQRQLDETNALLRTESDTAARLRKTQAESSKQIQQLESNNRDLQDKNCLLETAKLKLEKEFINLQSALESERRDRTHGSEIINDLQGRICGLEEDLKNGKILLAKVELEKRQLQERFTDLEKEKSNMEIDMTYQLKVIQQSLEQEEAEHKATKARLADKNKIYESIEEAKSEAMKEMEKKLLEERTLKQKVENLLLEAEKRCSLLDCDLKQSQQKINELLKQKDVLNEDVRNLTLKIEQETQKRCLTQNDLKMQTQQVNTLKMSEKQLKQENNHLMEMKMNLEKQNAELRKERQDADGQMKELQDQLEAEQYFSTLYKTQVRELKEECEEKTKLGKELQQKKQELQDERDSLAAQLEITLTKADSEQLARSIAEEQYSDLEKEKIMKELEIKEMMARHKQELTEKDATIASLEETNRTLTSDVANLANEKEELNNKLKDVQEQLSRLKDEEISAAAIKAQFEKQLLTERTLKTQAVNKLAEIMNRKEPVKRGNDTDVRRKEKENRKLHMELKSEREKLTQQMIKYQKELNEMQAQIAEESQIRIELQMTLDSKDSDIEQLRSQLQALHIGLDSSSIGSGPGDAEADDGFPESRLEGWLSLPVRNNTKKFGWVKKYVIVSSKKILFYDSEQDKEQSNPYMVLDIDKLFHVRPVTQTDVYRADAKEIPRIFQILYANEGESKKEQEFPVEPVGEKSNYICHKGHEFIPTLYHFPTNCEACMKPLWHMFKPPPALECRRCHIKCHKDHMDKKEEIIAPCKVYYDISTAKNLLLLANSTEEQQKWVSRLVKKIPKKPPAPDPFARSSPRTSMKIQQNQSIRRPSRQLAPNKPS
KIT(A829P), sequence (P10721 whole entry A829P): as the sequence (P10721 whole entry V559D) above, with D559V, A829P counted along it

With `COc1cc2c(cn1)N(C)C(=O)[C@@H](NC(=O)c1nc3n(n1)[C@H](c1ccccc1)CC3)CC2` [GNE684, (S)-N-((S)-7-methoxy-1-methyl-2-oxo-2,3,4,5-tetrahydro-1H-pyrido[3,4-b]azepin-3-yl)-5-phenyl-6,7-dihydro-5H-pyrrolo[1,2-b][1,2,4]triazole-2-carboxamide] the remaining binding at 10 µM (FRK) was 100%, the remaining binding at 10 µM (CSNK1D) was 100% and the remaining binding at 10 µM (CDKL2) was 95%. It also gave a remaining binding at 10 µM (KIT(A829P)) of 100%, a remaining binding at 10 µM (ROCK2) of 100% and a remaining binding at 10 µM (KIT(V559D)) of 100%. The remaining binding at 10 µM (p38-delta) was 92%, the remaining binding at 10 µM [1] was 73% and the remaining binding at 10 µM (VPS34) was 100%. The remaining binding at 10 µM (FAK) was 85%, the remaining binding at 10 µM (IRAK3) was 100% and the remaining binding at 10 µM (PCTK3) was 94%. It also gave a remaining binding at 10 µM (TRKA) of 87%, a remaining binding at 10 µM (MKNK1) of 100% and a remaining binding at 10 µM (SIK2) of 98%. The remaining binding at 10 µM (CAMK4) was 86%, the remaining binding at 10 µM (CAMK2G) was 100% and the remaining binding at 10 µM (PLK4) was 95%. For the same molecule, the remaining binding at 10 µM (AMPK-alpha1) was 97%, the remaining binding at 10 µM (STK16) was 100% and the remaining binding at 10 µM (MET(Y1235D)) was 82%.

— paper PMC7206119, “RIP1 inhibition blocks inflammatory diseases but not tumor growth or metastases” (Cell Death and Differentiation, 2019)
